Test results from patent US9365615B2, “Cross-linked peptides containing non-peptide cross-linked structure, method for synthesizing cross-linked peptides, and novel organic compound used in method” (JITSUBO Co., Ltd., priority 2013, dated 2016).
*1 amine or outer side, *2 acyl side, *3 side chain or, on linkers, in order; H or OH if unused. Where a SMILES comes first, the peptide text is derived from it. Bridges are numbered along the chain shown (N, C = ends). X1 = O=C(C[*:2])[*:1]

Assays:
carboxy peptidase = test: Resistance to peptidase: decomposition by carboxy peptidase (HPLC); type: in vitro ADME; conditions: isolated carboxy peptidase (SIGMA); 1 U/ml enzyme in PBS, 37° C., peptide 0.2 mg/ml; time at which half of the peptide was decomposed; read-out: half period by carboxy peptidase (t1/2)
Procedure: (§1) Resistance to a peptidase of a peptide of the present invention was investigated using a carboxy peptidase and chymotrypsin. Resistance to a peptidase was measured as described below.
A carboxy peptidase purchased from SIGMA was treated with PBS to prepare an enzyme solution of 1 U/ml, which was then kept warm at 37° C. in a water bath. Then, a peptide solution having a concentration adjusted to 5 mg/ml with DMSO: pure water=1:1 mixed solvent was treated with PBS(−) to obtain a concentration of 1 mg/ml, and the enzyme solution and the peptide solution were mixed at 4:1 so as to give a peptide final concentration of 0.2 mg/ml. Thereafter, these were reacted quickly at 37° C. With time, the reaction solution was sampled each in an amount of 0.1 ml, and a reaction stopping solution (25% TFA in acetonitrile, 20 μL) was added to stop the reaction. Samples were analyzed by HPLC, and decomposition of a peptide by the peptidase was measured. Sampling was conducted at 0, 0.5 minutes, 1 minute and 2 minutes, and when decomposition of […] or more was not obtained at 2 minutes, sampling was conducted further at 0.5 hours, 1 hour, 3 hours, additionally, sometimes at 6 hours, and for peptides stable for a long period, sampling was conducted in a range of 24 hours to 168 hours according to demands. Time at which half of the peptide added was decomposed was measured.

chymotrypsin = biological target: T1, chymotrypsin (Bos taurus, UniProt P00766); test: Resistance to peptidase: decomposition by chymotrypsin (HPLC); type: in vitro ADME; conditions: isolated chymotrypsin (SIGMA), pH 8; 4 U/ml enzyme in 0.1M Tris-HCl (pH8.0), 37° C., peptide 0.2 mg/ml; time at which half of the peptide was decomposed; read-out: half period by chymotrypsin (t1/2)
T1 construct: purchased SIGMA
Procedure: as §1
Chymotrypsin purchased from SIGMA was treated with 0.1M Tris-HCl (pH8.0) to prepare an enzyme solution of 4 U/ml, which was then kept warm at 37° C. in a water bath. Then, a peptide solution treated with DMSO: pure water=1:1 to obtain a concentration of 5 mg/ml was treated with 0.1M Tris-HCl (pH8.0) to give a concentration of 1 mg/ml, and the enzyme solution and the peptide solution were mixed at 4:1 so as to give a peptide final concentration of 0.2 mg/ml. Thereafter, these were reacted quickly at 37° C. With time, the reaction solution was sampled each in an amount of 0.1 ml, and a reaction stopping solution (25% TFA in acetonitrile, 20 μL) was added to stop the reaction. Samples were analyzed by HPLC, and decomposition of a peptide by chymotrypsin was measured. Sampling was conducted at 0, 0.5 minutes, 1 minute and 2 minutes, and when decomposition of 50% or more was not obtained at 2 minutes, sampling was conducted further at 0.5 hours, 1 hour, 3 hours, and time at which half of the peptide added was decomposed was measured.

half-life at 0.2 mg/ml (carboxy peptidase) [min]	half-life at 0.2 mg/ml (chymotrypsin) [min]	SMILES
15	4.37	CCC(=O)N1CCCC[C@H](NC(=O)[C@@H](N)Cc2ccc(O)cc2)C(=O)N[C@@H](Cc2c[nH]c3ccccc23)C(=O)N[C@@H](CO)C(=O)N[C@@H](CCC(N)=O)C(=O)N[C@@H](Cc2ccc(O)cc2)C(=O)N[C@@H](CC(C)C)C(=O)N(CC(=O)N[C@@H](Cc2ccc(O)cc2)C(=O)O)CCCC1 [Bdev-27]
3.34	0.39	CC(=O)N[C@@H](Cc1ccc(O)cc1)C(=O)N[C@H]1CCCCN(C(C)=O)CCCCN(CC(=O)N[C@@H](Cc2ccc(O)cc2)C(=O)O)C(=O)[C@H](CC(C)C)NC(=O)[C@H](Cc2ccc(O)cc2)NC(=O)[C@H](CCC(N)=O)NC(=O)[C@H](CO)NC(=O)[C@H](Cc2c[nH]c3ccccc23)NC1=O [Bdev5]
0.45	0.4	CC(C)C[C@@H]1NC(=O)[C@H](Cc2ccc(O)cc2)NC(=O)[C@H](CCC(N)=O)NC(=O)[C@H](CO)NC(=O)[C@H](Cc2c[nH]c3ccccc23)NC(=O)[C@@H](NC(=O)[C@@H](N)Cc2ccc(O)cc2)CSSC[C@@H](C(=O)N[C@@H](Cc2ccc(O)cc2)C(=O)O)NC1=O [STD, reference compound]
15.7	3.73	COCCOCCOCCOCCC(=O)N1CCCC[C@H](NC(=O)[C@@H](N)Cc2ccc(O)cc2)C(=O)N[C@@H](Cc2c[nH]c3ccccc23)C(=O)N[C@@H](CO)C(=O)N[C@@H](CCC(N)=O)C(=O)N[C@@H](Cc2ccc(O)cc2)C(=O)N[C@@H](CC(C)C)C(=O)N(CC(=O)N[C@@H](Cc2ccc(O)cc2)C(=O)O)CCCC1 [Bdev-29]
18.7	1.4	CC(=O)N1CCCC[C@H](NC(=O)[C@@H](N)Cc2ccc(O)cc2)C(=O)N[C@@H](Cc2c[nH]c3ccccc23)C(=O)N[C@@H](CO)C(=O)N[C@@H](CCC(N)=O)C(=O)N[C@@H](Cc2ccc(O)cc2)C(=O)N[C@@H](CC(C)C)C(=O)N(CC(=O)N[C@@H](Cc2ccc(O)cc2)C(=O)O)CCCC1 [Bdev2]
21.7	2.9	CCCCC(=O)N1CCCC[C@H](NC(=O)[C@@H](N)Cc2ccc(O)cc2)C(=O)N[C@@H](Cc2c[nH]c3ccccc23)C(=O)N[C@@H](CO)C(=O)N[C@@H](CCC(N)=O)C(=O)N[C@@H](Cc2ccc(O)cc2)C(=O)N[C@@H](CC(C)C)C(=O)N(CC(=O)N[C@@H](Cc2ccc(O)cc2)C(=O)O)CCCC1 [Bdev-28]
2.79	1.26	CC(C)C[C@@H]1NC(=O)[C@H](Cc2ccc(O)cc2)NC(=O)[C@H](CCC(N)=O)NC(=O)[C@H](CO)NC(=O)[C@H](Cc2c[nH]c3ccccc23)NC(=O)[C@@H](NC(=O)[C@@H](N)Cc2ccc(O)cc2)CCCCNCCCCN(CC(=O)N[C@@H](Cc2ccc(O)cc2)C(=O)O)C1=O [Bdev8]
2.47	2.09	CC(=O)N[C@@H](Cc1ccc(O)cc1)C(=O)N[C@H]1CCCCNCCCCN(CC(=O)N[C@@H](Cc2ccc(O)cc2)C(=O)O)C(=O)[C@H](CC(C)C)NC(=O)[C@H](Cc2ccc(O)cc2)NC(=O)[C@H](CCC(N)=O)NC(=O)[C@H](CO)NC(=O)[C@H](Cc2c[nH]c3ccccc23)NC1=O [Bdev6]
19.2	3.66	COCCOCCOCCOCCOCCOCCOCCOCCC(=O)N1CCCC[C@H](NC(=O)[C@@H](N)Cc2ccc(O)cc2)C(=O)N[C@@H](Cc2c[nH]c3ccccc23)C(=O)N[C@@H](CO)C(=O)N[C@@H](CCC(N)=O)C(=O)N[C@@H](Cc2ccc(O)cc2)C(=O)N[C@@H](CC(C)C)C(=O)N(CC(=O)N[C@@H](Cc2ccc(O)cc2)C(=O)O)CCCC1 [Bdev-30]
14.6	0.95	CC(=O)N1CCCCN(CC(=O)N[C@@H](Cc2ccc(O)cc2)C(=O)O)C(=O)[C@H](CC(C)C)NC(=O)[C@H](Cc2ccc(O)cc2)NC(=O)[C@H](CCC(N)=O)NC(=O)[C@H](CO)NC(=O)[C@H](Cc2c[nH]c3ccccc23)NC(=O)CN(C(=O)[C@@H](N)Cc2ccc(O)cc2)CCCC1 [Bdev-21]
0.72	0.45	CC(C)C[C@@H]1NC(=O)[C@H](Cc2ccc(O)cc2)NC(=O)[C@H](CCC(N)=O)NC(=O)[C@H](CO)NC(=O)[C@H](Cc2c[nH]c3ccccc23)NC(=O)[C@@H](NC(=O)[C@@H](N)Cc2ccc(O)cc2)CCCCNC(=O)CSC[C@@H](C(=O)N[C@@H](Cc2ccc(O)cc2)C(=O)O)NC1=O [Comp. 1, reference compound] (H-YKWSQYLCY-OH; linker 2-8 via X1)
2.63	1.85	CC(=O)N1CCCC[C@@H](C(=O)N[C@@H](Cc2ccc(O)cc2)C(=O)O)NC(=O)[C@H](CC(C)C)NC(=O)[C@H](Cc2ccc(O)cc2)NC(=O)[C@H](CCC(N)=O)NC(=O)[C@H](CO)NC(=O)[C@H](Cc2c[nH]c3ccccc23)NC(=O)[C@@H](NC(=O)[C@@H](N)Cc2ccc(O)cc2)CCCC1 [Bdev-25]
